# Where a name gives a salt, the structure may show the parent alone. Calls of active or inactive are those of the source.
# Legend:
# [1] = target: T1, Heat shock factor protein 1 (Mus musculus, UniProt P38532); test: enhancement of HSF1-driven luciferase signal – cell-based, NIH3T3, luminescence, dose retest, confirmation (AID 435004); type: functional;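 further: stress induced by proteasome inhibitor MG132 added 30 min after compound; luciferase reporter driven by HSF1 response element in NIH3T3 cells; actives raise luminescence as potentiators of the MG132 stress response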
# T1 sequence (P38532 whole entry): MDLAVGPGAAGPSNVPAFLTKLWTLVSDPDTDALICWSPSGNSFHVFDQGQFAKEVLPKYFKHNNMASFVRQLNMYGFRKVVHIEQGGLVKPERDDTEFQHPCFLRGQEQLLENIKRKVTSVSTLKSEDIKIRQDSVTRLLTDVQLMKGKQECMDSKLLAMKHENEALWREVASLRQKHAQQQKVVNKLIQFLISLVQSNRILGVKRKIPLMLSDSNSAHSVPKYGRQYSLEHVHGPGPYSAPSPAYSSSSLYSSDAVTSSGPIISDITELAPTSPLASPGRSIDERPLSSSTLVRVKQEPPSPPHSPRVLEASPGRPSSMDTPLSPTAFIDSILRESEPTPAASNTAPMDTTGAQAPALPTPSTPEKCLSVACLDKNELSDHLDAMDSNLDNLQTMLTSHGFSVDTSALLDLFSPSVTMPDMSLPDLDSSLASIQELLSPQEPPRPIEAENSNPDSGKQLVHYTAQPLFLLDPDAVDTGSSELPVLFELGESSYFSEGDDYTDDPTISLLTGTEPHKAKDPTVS
# [2] = target: Aryl hydrocarbon receptor (Homo sapiens, UniProt P35869); test: Luminescence-based cell-based high throughput dose response assay for activators of the Aryl Hydrocarbon Receptor (AHR). [Related pubchem assays: 2796 (Primary screen (AHR activators in singlicate)), 2845 (Confirmation screen (AHR activators in triplicate)), 434939 (Counterscreen (PXR activators in triplicate)), 2804 (Summary (AHR activators))]; type: ADME
# Sequence of Aryl hydrocarbon receptor (P35869 whole entry): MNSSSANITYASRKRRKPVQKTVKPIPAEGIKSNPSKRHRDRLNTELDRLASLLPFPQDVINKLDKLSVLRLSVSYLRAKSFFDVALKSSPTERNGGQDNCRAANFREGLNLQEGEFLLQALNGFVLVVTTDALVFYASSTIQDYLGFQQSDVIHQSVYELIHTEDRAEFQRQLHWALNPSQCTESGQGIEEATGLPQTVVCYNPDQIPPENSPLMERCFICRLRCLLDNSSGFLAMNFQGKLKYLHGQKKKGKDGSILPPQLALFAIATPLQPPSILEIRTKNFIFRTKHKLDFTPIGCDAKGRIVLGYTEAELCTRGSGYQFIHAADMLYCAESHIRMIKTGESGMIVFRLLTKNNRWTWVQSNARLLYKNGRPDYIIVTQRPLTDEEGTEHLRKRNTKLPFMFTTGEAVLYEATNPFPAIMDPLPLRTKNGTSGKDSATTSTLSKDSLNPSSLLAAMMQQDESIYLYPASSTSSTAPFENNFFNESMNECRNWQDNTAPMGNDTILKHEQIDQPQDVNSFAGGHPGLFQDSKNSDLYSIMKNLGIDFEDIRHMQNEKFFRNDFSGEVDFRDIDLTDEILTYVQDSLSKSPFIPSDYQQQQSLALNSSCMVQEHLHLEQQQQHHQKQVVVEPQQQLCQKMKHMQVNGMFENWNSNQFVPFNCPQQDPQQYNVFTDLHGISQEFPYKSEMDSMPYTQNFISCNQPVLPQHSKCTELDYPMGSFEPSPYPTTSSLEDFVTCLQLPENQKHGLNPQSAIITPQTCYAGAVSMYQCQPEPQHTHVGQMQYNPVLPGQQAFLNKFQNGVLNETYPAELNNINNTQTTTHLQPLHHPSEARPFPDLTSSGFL
# [3] = target: T2, Dual specificity protein phosphatase 6 (Rattus norvegicus, UniProt Q64346); test: inhibition of rat DUSP6 enzyme activity – biochemical, in vitro, primary screen (AID 425)
# T2 sequence (Q64346 whole entry): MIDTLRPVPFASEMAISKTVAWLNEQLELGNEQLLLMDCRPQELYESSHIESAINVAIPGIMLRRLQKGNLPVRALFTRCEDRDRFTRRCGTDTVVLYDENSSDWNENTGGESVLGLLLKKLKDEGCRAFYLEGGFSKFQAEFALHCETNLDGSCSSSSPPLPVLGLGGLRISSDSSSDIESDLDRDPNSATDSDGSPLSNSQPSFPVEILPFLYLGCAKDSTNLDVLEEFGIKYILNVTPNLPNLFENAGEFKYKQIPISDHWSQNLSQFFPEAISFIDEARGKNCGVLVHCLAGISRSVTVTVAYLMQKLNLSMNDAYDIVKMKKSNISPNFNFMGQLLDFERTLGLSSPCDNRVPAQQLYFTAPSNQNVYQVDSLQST
# [4] = loss of viability in HepG2 cells – cell-based, CellTiter-Glo, cherry-picked, cytotoxicity control for Shn3 inhibitor project, dose response (AID 624134); type: functional
# [5] = target: Sphingosine 1-phosphate receptor 2 (Homo sapiens, UniProt O95136); test: Dose Response Cell Based Assay for Antagonists of the S1P2 Receptor. [Related pubchem assays: 856, 736 ]; type: functional
# Sequence of Sphingosine 1-phosphate receptor 2 (O95136 whole entry): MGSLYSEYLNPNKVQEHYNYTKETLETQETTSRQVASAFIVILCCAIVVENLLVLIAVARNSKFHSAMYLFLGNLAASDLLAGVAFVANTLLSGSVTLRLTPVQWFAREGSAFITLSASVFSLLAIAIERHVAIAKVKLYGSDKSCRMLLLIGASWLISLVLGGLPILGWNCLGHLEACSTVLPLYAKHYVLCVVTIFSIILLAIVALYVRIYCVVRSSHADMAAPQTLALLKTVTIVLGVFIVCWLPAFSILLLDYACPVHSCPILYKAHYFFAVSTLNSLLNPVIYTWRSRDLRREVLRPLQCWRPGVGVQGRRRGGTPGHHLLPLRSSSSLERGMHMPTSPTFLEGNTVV
# Galanin receptor type 2 = Galanin receptor type 2 (Homo sapiens, UniProt O43603); test: Dose Response cell-based high-throughput screening assay to identify antagonists of galanin receptor 2 (GALR2). [Related pubchem assays: 828, 866 ]; type: functional
# Sequence of Galanin receptor type 2 (O43603 whole entry): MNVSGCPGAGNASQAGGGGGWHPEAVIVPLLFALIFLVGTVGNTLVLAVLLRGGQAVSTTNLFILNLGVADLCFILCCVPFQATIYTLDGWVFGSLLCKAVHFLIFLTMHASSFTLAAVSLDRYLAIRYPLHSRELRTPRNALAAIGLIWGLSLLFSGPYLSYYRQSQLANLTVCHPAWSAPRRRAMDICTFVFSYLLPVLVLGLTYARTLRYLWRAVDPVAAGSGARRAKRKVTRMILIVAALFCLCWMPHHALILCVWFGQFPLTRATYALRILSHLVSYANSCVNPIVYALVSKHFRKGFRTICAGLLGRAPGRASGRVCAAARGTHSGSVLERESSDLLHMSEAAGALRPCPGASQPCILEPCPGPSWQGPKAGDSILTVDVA
# [6] = target: T3, Short transient receptor potential channel 4 (Mus musculus, UniProt Q9QUQ5); test: calcium entry via TRPC4 opening agents – cell-based, HEK293 TRPC4/mu-opioid, Fluo-4 calcium, dose response (AID 434937); type: functional
# T3 sequence (Q9QUQ5 whole entry): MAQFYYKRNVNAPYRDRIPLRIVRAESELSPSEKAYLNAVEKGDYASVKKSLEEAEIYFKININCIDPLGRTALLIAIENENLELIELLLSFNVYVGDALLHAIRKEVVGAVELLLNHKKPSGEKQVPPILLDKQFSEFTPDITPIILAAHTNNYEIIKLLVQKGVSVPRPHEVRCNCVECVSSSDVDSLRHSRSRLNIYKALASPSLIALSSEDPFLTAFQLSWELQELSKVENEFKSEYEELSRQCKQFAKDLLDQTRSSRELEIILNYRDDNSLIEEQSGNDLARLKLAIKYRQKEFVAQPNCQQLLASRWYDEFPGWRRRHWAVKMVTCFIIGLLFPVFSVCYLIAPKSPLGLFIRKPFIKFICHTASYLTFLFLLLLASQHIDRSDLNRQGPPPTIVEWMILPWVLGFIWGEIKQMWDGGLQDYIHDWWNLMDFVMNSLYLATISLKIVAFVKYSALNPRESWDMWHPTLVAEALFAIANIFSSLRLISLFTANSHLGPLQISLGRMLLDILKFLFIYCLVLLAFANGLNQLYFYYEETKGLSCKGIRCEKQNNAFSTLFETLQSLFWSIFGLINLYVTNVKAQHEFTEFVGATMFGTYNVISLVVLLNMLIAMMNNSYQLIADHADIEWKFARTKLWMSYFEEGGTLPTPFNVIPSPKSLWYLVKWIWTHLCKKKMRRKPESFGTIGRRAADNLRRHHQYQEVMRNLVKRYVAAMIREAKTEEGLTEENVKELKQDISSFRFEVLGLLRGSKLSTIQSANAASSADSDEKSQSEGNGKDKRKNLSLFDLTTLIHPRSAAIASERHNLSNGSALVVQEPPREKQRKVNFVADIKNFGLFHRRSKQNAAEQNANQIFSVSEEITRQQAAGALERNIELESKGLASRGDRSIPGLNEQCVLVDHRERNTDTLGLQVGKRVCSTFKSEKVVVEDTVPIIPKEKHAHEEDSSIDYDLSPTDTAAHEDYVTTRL
# [7] = reduction of Shn3 3'UTR-driven luciferase in osteoblasts – cell-based, Clone20 osteoblasts, firefly luciferase, cherry-picked, dose response (AID 624132); type: functional;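 further: firefly luciferase luminescence from reporter carrying the Shn3 3'UTR in osteoblasts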
# [8] = non-specific 3'UTR reporter inhibition in Clone20-Shn3RL – cell-based, Renilla luciferase, cherry-picked, counter-screen for Shn3 inhibitor project, dose response (AID 624133); type: functional
# INS1 = test: INS-1E survival protection against cytokine death – cell-based, luminescence, retest, dose response (AID 449756); type: functional; settings: Rattus norvegicus;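 further: cell death triggered by IL-1 beta plus TNF-alpha plus IFN-gamma mixture; protective hits raise ATP signal compared with cytokine alone wells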
# Cytochrome P450 2C9 = Cytochrome P450 2C9 (Homo sapiens, UniProt P11712)
# Sequence of Cytochrome P450 2C9 (P11712 whole entry): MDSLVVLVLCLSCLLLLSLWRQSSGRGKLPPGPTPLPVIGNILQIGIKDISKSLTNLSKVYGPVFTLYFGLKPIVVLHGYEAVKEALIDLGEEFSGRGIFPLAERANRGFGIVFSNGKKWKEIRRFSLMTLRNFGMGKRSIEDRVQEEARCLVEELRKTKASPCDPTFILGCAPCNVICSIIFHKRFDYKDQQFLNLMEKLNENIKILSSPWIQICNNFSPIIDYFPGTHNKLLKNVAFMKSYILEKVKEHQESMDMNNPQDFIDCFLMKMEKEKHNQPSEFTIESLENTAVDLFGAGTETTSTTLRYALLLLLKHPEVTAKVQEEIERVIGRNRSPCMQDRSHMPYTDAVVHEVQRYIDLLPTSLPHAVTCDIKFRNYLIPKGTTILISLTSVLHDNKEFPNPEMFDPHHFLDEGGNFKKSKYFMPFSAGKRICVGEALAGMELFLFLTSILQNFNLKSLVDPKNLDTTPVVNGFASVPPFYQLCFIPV
# 14-3-3 protein gamma = 14-3-3 protein gamma (Homo sapiens, UniProt P61981); test: modulators of 14-3-3 gamma client binding – dose response (AID 711); type: functional
# Sequence of 14-3-3 protein gamma (P61981 whole entry): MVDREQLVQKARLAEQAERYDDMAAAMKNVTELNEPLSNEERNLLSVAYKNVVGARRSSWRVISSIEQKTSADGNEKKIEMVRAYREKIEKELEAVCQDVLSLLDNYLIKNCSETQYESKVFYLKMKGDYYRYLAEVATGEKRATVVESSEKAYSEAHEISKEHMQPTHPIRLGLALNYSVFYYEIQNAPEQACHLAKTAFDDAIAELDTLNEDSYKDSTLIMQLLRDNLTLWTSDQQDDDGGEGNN
# [9] = target: T4, Apoptotic protease-activating factor 1 (Homo sapiens, UniProt O14727); type: functional
# T4 sequence (O14727 whole entry): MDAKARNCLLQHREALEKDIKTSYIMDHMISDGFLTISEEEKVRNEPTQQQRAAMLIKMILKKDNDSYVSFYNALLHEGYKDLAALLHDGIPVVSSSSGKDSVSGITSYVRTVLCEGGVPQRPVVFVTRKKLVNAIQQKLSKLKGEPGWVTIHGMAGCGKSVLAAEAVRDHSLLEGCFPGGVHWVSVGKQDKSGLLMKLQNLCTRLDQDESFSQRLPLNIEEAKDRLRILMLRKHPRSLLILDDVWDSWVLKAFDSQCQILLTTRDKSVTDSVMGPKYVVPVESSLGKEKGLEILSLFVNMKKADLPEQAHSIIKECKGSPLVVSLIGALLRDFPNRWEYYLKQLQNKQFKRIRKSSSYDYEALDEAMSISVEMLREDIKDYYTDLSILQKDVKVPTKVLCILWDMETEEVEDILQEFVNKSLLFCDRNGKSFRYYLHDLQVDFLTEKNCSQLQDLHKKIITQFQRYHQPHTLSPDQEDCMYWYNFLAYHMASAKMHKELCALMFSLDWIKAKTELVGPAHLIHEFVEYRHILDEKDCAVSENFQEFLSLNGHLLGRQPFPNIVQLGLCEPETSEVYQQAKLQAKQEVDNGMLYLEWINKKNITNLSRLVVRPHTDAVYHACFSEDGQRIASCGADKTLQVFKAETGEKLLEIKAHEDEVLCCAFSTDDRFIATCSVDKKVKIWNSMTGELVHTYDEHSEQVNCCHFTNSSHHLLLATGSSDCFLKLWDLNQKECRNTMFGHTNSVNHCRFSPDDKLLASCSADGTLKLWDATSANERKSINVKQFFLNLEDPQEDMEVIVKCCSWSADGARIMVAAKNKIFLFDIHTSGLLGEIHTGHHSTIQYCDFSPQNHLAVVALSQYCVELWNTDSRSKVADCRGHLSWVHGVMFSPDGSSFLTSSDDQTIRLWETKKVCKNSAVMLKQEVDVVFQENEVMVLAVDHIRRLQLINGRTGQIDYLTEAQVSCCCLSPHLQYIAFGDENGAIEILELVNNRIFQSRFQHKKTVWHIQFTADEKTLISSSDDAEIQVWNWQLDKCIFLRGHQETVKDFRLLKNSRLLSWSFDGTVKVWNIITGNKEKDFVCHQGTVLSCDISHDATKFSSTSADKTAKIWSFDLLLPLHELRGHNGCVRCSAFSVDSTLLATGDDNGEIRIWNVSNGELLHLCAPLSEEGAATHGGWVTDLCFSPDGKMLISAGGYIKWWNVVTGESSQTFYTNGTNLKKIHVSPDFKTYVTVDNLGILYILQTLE
# Keap1/Nrf2 = Keap1/Nrf2 (Homo sapiens, UniProt Q14145); test: disruptors of Keap1 binding to Nrf2 peptide – biochemical, fluorescence polarization, cherry-picked samples, dose response (AID 588683)
# Sequence of Keap1/Nrf2 (Q16236 whole entry): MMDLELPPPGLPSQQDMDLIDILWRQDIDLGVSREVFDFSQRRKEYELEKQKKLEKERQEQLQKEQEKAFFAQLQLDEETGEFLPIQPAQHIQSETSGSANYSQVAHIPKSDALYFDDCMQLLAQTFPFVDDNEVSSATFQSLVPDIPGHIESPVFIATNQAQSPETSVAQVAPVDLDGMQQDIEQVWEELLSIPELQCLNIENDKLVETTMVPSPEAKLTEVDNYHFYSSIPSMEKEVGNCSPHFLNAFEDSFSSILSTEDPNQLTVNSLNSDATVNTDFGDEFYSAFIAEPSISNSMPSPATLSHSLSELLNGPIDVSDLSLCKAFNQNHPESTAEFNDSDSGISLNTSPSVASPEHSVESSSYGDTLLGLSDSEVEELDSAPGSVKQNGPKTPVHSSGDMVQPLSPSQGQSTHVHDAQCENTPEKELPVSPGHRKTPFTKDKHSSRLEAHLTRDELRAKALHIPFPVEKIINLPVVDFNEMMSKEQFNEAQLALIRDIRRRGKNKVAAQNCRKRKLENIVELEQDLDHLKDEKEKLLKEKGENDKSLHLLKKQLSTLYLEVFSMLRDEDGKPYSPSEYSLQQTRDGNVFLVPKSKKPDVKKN
# Sequence of Keap1/Nrf2 (Q14145 whole entry): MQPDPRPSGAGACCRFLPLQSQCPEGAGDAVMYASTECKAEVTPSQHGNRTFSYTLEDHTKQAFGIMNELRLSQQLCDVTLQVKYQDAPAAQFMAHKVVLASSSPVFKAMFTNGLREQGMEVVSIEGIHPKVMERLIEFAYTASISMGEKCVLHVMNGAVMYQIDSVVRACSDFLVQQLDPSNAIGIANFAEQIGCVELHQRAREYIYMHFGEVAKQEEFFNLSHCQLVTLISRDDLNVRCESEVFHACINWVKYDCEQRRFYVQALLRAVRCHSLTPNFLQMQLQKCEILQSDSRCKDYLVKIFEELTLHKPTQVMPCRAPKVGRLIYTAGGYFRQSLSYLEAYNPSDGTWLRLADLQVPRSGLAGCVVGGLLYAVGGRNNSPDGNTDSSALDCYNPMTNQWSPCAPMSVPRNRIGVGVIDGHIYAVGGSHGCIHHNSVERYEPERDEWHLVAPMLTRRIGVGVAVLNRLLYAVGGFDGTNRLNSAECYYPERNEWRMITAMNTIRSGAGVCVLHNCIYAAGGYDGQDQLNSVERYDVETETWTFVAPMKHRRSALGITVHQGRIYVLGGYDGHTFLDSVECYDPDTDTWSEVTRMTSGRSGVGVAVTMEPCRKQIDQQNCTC
# [10] = HEK-293T viability loss, compound-treated – cell-based, uHTS hits, cytotoxicity control for B/T-cell NF-kB inhibitor project, dose response (AID 489019); type: functional;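 further: IC50 reflects cytotoxicity as loss of cell viability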
# BJ = test: growth inhibition of engineered Ras-driven BJ cells – cell-based, alamar blue fluorescence, cherrypicked samples, dose response (AID 2631); type: functional; settings: Homo sapiens;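 further: confirmatory dose-response assay in RAS-dependent BJ fibroblasts engineered with TERT, LT and ST, with cytotoxicity read by fluorescence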
# ORF 73 = target: T5, ORF 73 (Human herpesvirus 8, UniProt O40947); test: KSHV LANA DNA-binding disruption – biochemical, fluorescence polarization, cherry-picked samples, dose response (AID 504725); design: species or system Human gammaherpesvirus 8;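 further: fluorescence polarization of a labeled DNA duplex reporting LANA DNA binding; potency is for inhibitors that block LANA binding to the DNA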
# T5 sequence (O40947 whole entry): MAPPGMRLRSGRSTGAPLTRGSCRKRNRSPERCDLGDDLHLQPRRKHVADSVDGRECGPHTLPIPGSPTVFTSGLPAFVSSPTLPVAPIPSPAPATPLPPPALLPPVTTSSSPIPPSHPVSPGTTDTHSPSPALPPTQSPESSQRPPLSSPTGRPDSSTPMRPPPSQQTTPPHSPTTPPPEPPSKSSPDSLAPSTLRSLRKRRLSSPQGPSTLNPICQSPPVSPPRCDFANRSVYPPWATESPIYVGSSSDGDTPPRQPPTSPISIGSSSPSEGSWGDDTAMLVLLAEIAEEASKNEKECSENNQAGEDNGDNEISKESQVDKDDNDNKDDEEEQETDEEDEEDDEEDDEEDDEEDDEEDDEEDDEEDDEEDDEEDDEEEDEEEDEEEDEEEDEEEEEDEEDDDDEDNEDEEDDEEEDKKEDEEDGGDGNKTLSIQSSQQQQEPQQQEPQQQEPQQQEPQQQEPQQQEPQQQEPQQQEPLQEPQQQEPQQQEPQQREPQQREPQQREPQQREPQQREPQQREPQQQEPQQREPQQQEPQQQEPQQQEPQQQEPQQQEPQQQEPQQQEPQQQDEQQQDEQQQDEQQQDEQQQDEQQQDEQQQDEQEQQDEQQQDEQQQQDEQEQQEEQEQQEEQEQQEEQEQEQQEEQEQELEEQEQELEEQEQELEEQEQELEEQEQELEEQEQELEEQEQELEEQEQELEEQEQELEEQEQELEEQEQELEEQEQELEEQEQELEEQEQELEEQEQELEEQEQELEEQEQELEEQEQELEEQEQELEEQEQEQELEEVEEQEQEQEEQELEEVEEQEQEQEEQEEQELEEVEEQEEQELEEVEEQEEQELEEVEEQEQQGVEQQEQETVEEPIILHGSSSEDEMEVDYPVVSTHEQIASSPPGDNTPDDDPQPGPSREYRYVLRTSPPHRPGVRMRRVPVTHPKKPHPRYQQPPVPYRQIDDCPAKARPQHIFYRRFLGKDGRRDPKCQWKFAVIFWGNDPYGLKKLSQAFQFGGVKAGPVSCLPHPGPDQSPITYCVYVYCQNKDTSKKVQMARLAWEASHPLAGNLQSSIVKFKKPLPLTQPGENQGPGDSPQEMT
# [11] = test system: Streptococcus sp. 'group A'; test: Streptococcus pyogenes SK(-)GAS viability under kanamycin – luminescence, BacTiterGlo, confirmation, counter-screen for streptokinase expression inhibitor project, dose response (AID 1900); type: functional, organism-based
# [12] = target: UDP-galactopyranose mutase (Mycobacterium tuberculosis, UniProt P9WIQ1); test: Inhibitors of Mycobacterium tuberculosis UDP-galactopyranose mutase (UGM) enzyme Measured in Biochemical System Using Plate Reader - 2105-02_Inhibitor_Dose_CherryPick_Activity. [Related pubchem assays (depositor defined):AID504439]
# Sequence of UDP-galactopyranose mutase (P9WIQ1 whole entry): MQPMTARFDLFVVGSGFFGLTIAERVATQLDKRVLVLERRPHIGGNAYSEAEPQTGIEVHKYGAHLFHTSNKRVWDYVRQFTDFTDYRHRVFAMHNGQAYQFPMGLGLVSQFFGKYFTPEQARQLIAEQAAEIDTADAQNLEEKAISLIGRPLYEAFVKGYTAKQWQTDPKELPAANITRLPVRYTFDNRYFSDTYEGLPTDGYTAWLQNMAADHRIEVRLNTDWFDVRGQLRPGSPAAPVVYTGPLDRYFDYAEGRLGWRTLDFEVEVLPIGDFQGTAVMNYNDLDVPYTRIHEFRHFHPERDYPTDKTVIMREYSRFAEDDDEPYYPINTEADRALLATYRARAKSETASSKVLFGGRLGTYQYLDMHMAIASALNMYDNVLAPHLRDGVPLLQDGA
# Protein S100-A4 = Protein S100-A4 (Homo sapiens, UniProt P26447); test: human S100A4 peptide interaction inhibition curves – biochemical, fluorescence polarization, cherry-picked hits, dose response (AID 687001); type: functional
# Sequence of Protein S100-A4 (P26447 whole entry): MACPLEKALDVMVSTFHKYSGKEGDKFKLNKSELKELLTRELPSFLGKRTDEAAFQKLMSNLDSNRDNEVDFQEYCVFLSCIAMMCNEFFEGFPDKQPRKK
# HeLa = test: viability loss in HeLa cells – cell-based, 24 h, cherry-picked samples, cytotoxicity control, dose response (AID 504726); type: functional; settings: Homo sapiens;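 further: potency for cytotoxicity as loss of luminescence signal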
# Streptococcus = test: GAS UMAA2166 growth inhibition – luminescence, BacTiterGlo, counter-screen for streptokinase expression inhibitor project, dose response (AID 1915); type: functional, organism-based;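 further: potency for reduction of bacterial viability or growth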
smiles,measurement,setting,value
Cc1cccc2cc3c(N)c(C(=O)N4CCOCC4)sc3nc12,EC50,[1],> 260 µM (inactive)
same,EC50,[2],> 3.39 µM (active)
COC(=O)CCCc1nc2ccccc2s1,IC50,[3],> 100 µM (not active)
Cc1ccc2[nH]c3c(N4CCc5ccccc5C4)ncnc3c2c1,AC50,[4],33.8 µM (active)
same,EC50,[1],103 µM (active)
same,IC50,[5],3.63 µM (active)
same,IC50,Galanin receptor type 2,> 42 µM (not active)
same,EC50,[6],5.96 µM (active)
same,AC50,[7],1.18 µM (active)
same,AC50,[8],< 0.26 µM (active)
same,AC50,INS1,1.38 µM (active)
same,AC50,Cytochrome P450 2C9,2.24 µM (inconclusive)
COc1cccc2c1C(=O)c1c(O)c3c(c(O)c1C2=O)C[C@@](O)(C(=O)CO)C[C@@H]3O[C@H]1C[C@H](N)[C@H](O)[C@H](C)O1 [DOXORUBICIN HYDROCHLORIDE],IC50,14-3-3 protein gamma,< 0.781 µM (active)
same,IC50,[9],21.2 µM (active)
same,AC50,Keap1/Nrf2,43.4 µM (active)
same,IC50,[10],> 80 µM (inactive)
same,EC50,BJ,< 0.104 µM (active)
same,AC50,ORF 73,1.46 µM (active)
same,EC50,[11],0.518 µM (active)
same,AC50,[12],32.2 µM (active)
same,AC50,Protein S100-A4,0.323 µM (active)
same,AC50,HeLa,4.38 µM (active)
same,EC50,Streptococcus,3.69 µM (active)

# Source: ChEMBL document CHEMBL1201862, “PubChem BioAssay data set” (2004)
